Our source for the IC50 values is ChEMBL document CHEMBL5052852, “Substituted hydantoinamides as adamts7 antagonists” (2021).

The nature of test [1]: Inhibition of recombinant rat/human ADAMTS7 hybrid using HiLyteFluor-488 DELSSMVLELRGLRT-K(QXL520)-E-NH2 as substrate incubated for 120 mins and measured by FRET assay.
Test [2] can be described thus: Inhibition of recombinant rat/human ADAMTS12 hybrid using HiLyteFluor-488 DELSSMVLELRGLRT-K(QXL520)-E-NH2 as substrate incubated for 120 mins and measured by FRET assay.

As a reminder, the IC50 is the midpoint of a concentration-inhibition curve. As for `O=C1NC(=O)C(CNC(=O)c2cnn(-c3ccc(F)cc3)n2)(C2CCCC2)N1` (stereo in doubt), the concentration for half-maximal inhibition (IC50) is 33 nM in test [1] and 5900 nM in test [2].
In the case of `O=C1NC(=O)[C@](CNC(=O)c2cnn(-c3ccc(Cl)cc3F)n2)(C2CC2)N1`, the IC50 in test [1] is 60 nM; in test [2], 1000 nM.
For `C[C@@H](NC(=O)c1cnn(-c2ccccc2)n1)C1(C2CC2)NC(=O)NC1=O` (stereo partly drawn) the same measures were 710 nM and 50000 nM.
For `O=C1NC(=O)[C@](CNC(=O)c2cnn(-c3cnccn3)n2)(C2CC2)N1` the same measures were 355 nM and 24000 nM.
For the compound `CC(C)(C)C1(CNC(=O)c2cnn(-c3ccc(F)cc3)n2)NC(=O)NC1=O` (racemic), the results for the concentration for half-maximal inhibition (IC50) in test [1] and in test [2] were 69 nM and 6000 nM, respectively.
For `CC(C)C1(CNC(=O)c2cnn(-c3ccc(Cl)c(F)c3)n2)NC(=O)NC1=O` (racemic), the IC50 in test [1] was 13 nM; in test [2], 2800 nM.
For `O=C1NC(=O)[C@](CNC(=O)c2cnn(-c3nc4ccccc4s3)n2)(C2CC2)N1` the same measures were 190 nM and 11000 nM.
For `CC1(C)CC1C1(CNC(=O)c2cnn(-c3ccccc3)n2)NC(=O)NC1=O` (stereo in doubt; form 2) the same measures were 38 nM and 2000 nM.
For `O=C1NC(=O)C(CNC(=O)c2cnn(-c3ccc(Cl)cc3)n2)(C2CCC2)N1` (stereo not drawn) the same measures were 10 nM and 980 nM.
In the case of `O=C1NC(=O)C(CNC(=O)c2cnn(-c3ccccc3)n2)(CC2CC2)N1` (racemic), the half-inhibitory concentration (IC50) came out at 670 nM in test [1] and 25000 nM in test [2].
As for `O=C1NC(=O)[C@](CNC(=O)c2cnn(-c3cccc(F)c3F)n2)(C2CC2)N1`, the IC50 in test [1] stood at 74 nM; in test [2], 3100 nM.
For `CC(C)C1(CNC(=O)c2cnn(-c3ccc(F)c(F)c3)n2)NC(=O)NC1=O` (stereo in doubt) the same measures were 7 nM and 910 nM.
Turning to `O=C1NC(=O)C(CNC(=O)c2cnn(-c3ccc(F)cc3)n2)(c2ccncc2)N1` (racemic), the half-inhibitory concentration (IC50) was found to be 140 nM in test [1] and 2900 nM in test [2].
For `O=C1NC(=O)C(CNC(=O)c2cnn(-c3ccccc3)n2)(C2CCCCC2)N1` (racemic) the same measures were 145 nM and 50000 nM.
For `O=C1NC(=O)[C@](CNC(=O)c2cnn(-c3cccc(Cl)c3)n2)(C2CC2)N1` the same measures were 21 nM and 450 nM.
For `Cn1cc(-c2cc(C(=O)NC[C@@]3(C4CC4)NC(=O)NC3=O)on2)cn1` the same measures were 52 nM and 4690 nM.
On to `O=C1NC(=O)[C@](CNC(=O)c2cnn(-c3ccccc3)c2)(C2CC2)N1`, for which the IC50 in test [1] was 129 nM; in test [2], 1800 nM.
Regarding `C[C@H](NC(=O)c1cnn(-c2ccccc2)n1)C1(C2CC2)NC(=O)NC1=O` (stereo partly drawn), the results for the half-maximal inhibitory concentration (IC50) in test [1] and in test [2] were 980 nM and 25000 nM, respectively.
For `CCCC1(CNC(=O)c2cnn(-c3ccc(F)cc3)n2)NC(=O)NC1=O` (stereo in doubt) the same measures were 60 nM and 5100 nM.
For `O=C1NC(=O)C(CNC(=O)c2cnn(-c3ccc(F)cc3)n2)(C2CCOCC2)N1` (racemic) the same measures were 260 nM and 9300 nM.
For `O=C1NC(=O)[C@](CNC(=O)c2cnn(-c3ccc(Br)cc3)n2)(C2CC2)N1` the same measures were 58 nM and 1400 nM.
For `CCC1(CNC(=O)c2cnn(-c3ccc(F)cc3)n2)NC(=O)NC1=O` (racemic), the half-maximal inhibitory concentration (IC50) was 200 nM in test [1] and 13000 nM in test [2].
On to `O=C1NC(=O)[C@](CNC(=O)c2coc(-c3ccc(F)cc3)n2)(C2CC2)N1`, for which the IC50 came to 55 nM in test [1] and 1700 nM in test [2].
Turning to `Cc1scnc1C1(CNC(=O)c2cnn(-c3ccc(F)cc3)n2)NC(=O)NC1=O` (stereo in doubt), the 50% inhibitory concentration (IC50) is 2 nM in test [1] and 200 nM in test [2].
As for `O=C1NC(=O)C(CNC(=O)c2cnn(-c3ccccc3)n2)(C2CCC2)N1` (racemic), the IC50 was determined as 55 nM in test [1] and 14000 nM in test [2].
As for `CC(C)(C)C1(CNC(=O)c2cnn(-c3ccccc3)n2)NC(=O)NC1=O` (stereo in doubt), the concentration for half-maximal inhibition (IC50) came out at 47 nM in test [1] and 13100 nM in test [2].
For `O=C1NC(=O)C(CNC(=O)c2cnn(-c3cc(F)c(F)c(F)c3)n2)(C2CCC2)N1` (stereo not drawn) the same measures were 16 nM and 3100 nM.
Take `CC(CO)C1(CNC(=O)c2cnn(-c3ccccc3)n2)NC(=O)NC1=O` (stereo not drawn): the IC50 in test [1] turned out to be 190 nM; in test [2], 17000 nM.
For `O=C1NC(=O)[C@](CNC(=O)c2cnc(-c3ccccc3)o2)(C2CC2)N1` the same measures were 550 nM and 11300 nM.
For `O=C1NC(=O)[C@](CNC(=O)c2cnn(-c3ccc(F)c(Cl)c3)n2)(C2CC2)N1` the same measures were 5 nM and 250 nM.
For `Cc1scnc1C1(CNC(=O)c2cnn(-c3ccc(F)cc3)n2)NC(=O)NC1=O` (racemic) the same measures were 8 nM and 680 nM.
In the case of `CCCCC1(CNC(=O)c2cnn(-c3ccc(F)cc3)n2)NC(=O)NC1=O` (stereo in doubt), the half-maximal inhibitory concentration (IC50) in test [1] was 48 nM; in test [2], 3100 nM.
Take `O=C1NC(=O)C(CNC(=O)c2cnn(-c3ccc(F)cc3)n2)(c2ncccc2C(F)(F)F)N1` (racemic): the IC50 in test [1] came to 59 nM; in test [2], 15000 nM.
In the case of `O=C1NC(=O)C(CNC(=O)c2cnn(-c3ccc(F)cc3)n2)(c2cscn2)N1` (stereo not drawn), the IC50 in test [1] came to 12 nM; in test [2], 2500 nM.
For `O=C1NC(=O)C(CNC(=O)c2cnn(-c3ccc(F)cc3)n2)(C2CCCC2)N1` (racemic) the same measures were 380 nM and 50000 nM.
Take `O=C1NC(=O)C(CNC(=O)c2cnn(-c3ccc(F)cc3)n2)(c2ncsc2C2CC2)N1` (racemic): the 50% inhibitory concentration (IC50) stood at 8 nM in test [1] and 460 nM in test [2].
`O=C1NC(=O)C(CNC(=O)c2cnn(-c3ccccc3)n2)(c2ccncc2)N1` (racemic): the half-maximal inhibitory concentration (IC50) in test [1] was 20 nM; in test [2], 2800 nM.
For `O=C1NC(=O)C(CNC(=O)c2cnn(-c3ccccc3)n2)(C2CCCC2)N1` (stereo in doubt) the same measures were 120 nM and 11000 nM.
For `CC(C)C1(CNC(=O)c2cnn(-c3cccc(C#N)c3)n2)NC(=O)NC1=O` (stereo in doubt) the same measures were 78 nM and 2600 nM.
For `O=C1NC(=O)C(CNC(=O)c2cnn(-c3ccc(F)cc3)n2)(C2CCOCC2)N1` (stereo in doubt) the same measures were 37 nM and 1500 nM.
In the case of `CC(C)C1(CNC(=O)c2cnn(-c3cc(F)c(F)c(F)c3)n2)NC(=O)NC1=O` (racemic), the concentration for half-maximal inhibition (IC50) in test [1] is 52 nM; in test [2], 6000 nM.
For `O=C1NC(=O)C(CNC(=O)c2cnn(-c3ccccc3)n2)(C2CCOC2)N1` (racemic) the same measures were 170 nM and 22000 nM.
For `O=C1NC(=O)C(CNC(=O)c2cnn(-c3cccc(F)c3)n2)(C2CCC2)N1` (stereo not drawn) the same measures were 8 nM and 2200 nM.
For `CC(C)C1(CNC(=O)c2cnn(-c3ccccc3)n2)NC(=O)NC1=O` (stereo in doubt) the same measures were 76 nM and 10000 nM.
